# PubChem BioAssay AID1963436 (Molecular Pharmacology Branch, DTP, NCI, 2024)
# Test system: OVCAR-5 complex spheroid (HUVEC/MSC), viability % T/C
# Assay: Anticancer human tumor OVCAR-5 cell line growth inhibition [Asc];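 further: spheroids exposed to agents for 7 days before readout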;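 on viability, T/C: 100% = DMSO vehicle-treated wells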
# Details: for IC50: curve of first compound; for viability, T/C: stronger effect = lower value
# Method in brief: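 Tumor cells were grown as complex spheroids with human endothelial cells (HUVEC) and human mesenchymal stem cells as stroma. Agents were tested alone and in combination, in half-log steps down from the clinical Cmax, or from 10 microM where Cmax was unknown.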
structure (smiles),measurement,setting,value
NC(=O)C(=Cn1cnc(-c2cc(C(F)(F)F)cc(C(F)(F)F)c2)n1)c1cncnc1 + CNC(C)C(=O)NC1CN(S(=O)(=O)c2cccc(S(=O)(=O)N3CCC4CCC(C(=O)NC(c5ccccc5)c5ccccc5)N4C(=O)C(NC(=O)C(C)NC)C3)c2)CCC2CCC(C(=O)NC(c3ccccc3)c3ccccc3)N2C1=O,IC50,second compound 0.01 µM,222 nM
same,IC50,second compound 0.0316 µM,147 nM
same,IC50,second compound 0.1 µM,135 nM
same,IC50,second compound 0.316 µM,141 nM
same,IC50,second compound 1 µM,124 nM
same,"viability, T/C","second compound 0.01 µM, first compound 0.000949 µM",95.4%
same,"viability, T/C","second compound 0.01 µM, first compound 0.003 µM",95.5%
same,"viability, T/C","second compound 0.01 µM, first compound 0.00949 µM",91.4%
same,"viability, T/C","second compound 0.01 µM, first compound 0.03 µM",76.5%
same,"viability, T/C","second compound 0.01 µM, first compound 0.0949 µM",63%
same,"viability, T/C","second compound 0.01 µM, first compound 0.3 µM",45.5%
same,"viability, T/C","second compound 0.0316 µM, first compound 0.000949 µM",96%
same,"viability, T/C","second compound 0.0316 µM, first compound 0.003 µM",89.2%
same,"viability, T/C","second compound 0.0316 µM, first compound 0.00949 µM",73.3%
same,"viability, T/C","second compound 0.0316 µM, first compound 0.03 µM",67.7%
same,"viability, T/C","second compound 0.0316 µM, first compound 0.0949 µM",60%
same,"viability, T/C","second compound 0.0316 µM, first compound 0.3 µM",39%
same,"viability, T/C","second compound 0.1 µM, first compound 0.000949 µM",86.6%
same,"viability, T/C","second compound 0.1 µM, first compound 0.003 µM",89.9%
same,"viability, T/C","second compound 0.1 µM, first compound 0.00949 µM",77.4%
same,"viability, T/C","second compound 0.1 µM, first compound 0.03 µM",66.3%
same,"viability, T/C","second compound 0.1 µM, first compound 0.0949 µM",57.2%
same,"viability, T/C","second compound 0.1 µM, first compound 0.3 µM",38%
same,"viability, T/C","second compound 0.316 µM, first compound 0.000949 µM",82.2%
same,"viability, T/C","second compound 0.316 µM, first compound 0.003 µM",84.1%
same,"viability, T/C","second compound 0.316 µM, first compound 0.00949 µM",69.4%
same,"viability, T/C","second compound 0.316 µM, first compound 0.03 µM",66.7%
same,"viability, T/C","second compound 0.316 µM, first compound 0.0949 µM",60%
same,"viability, T/C","second compound 0.316 µM, first compound 0.3 µM",37%
same,"viability, T/C","second compound 1 µM, first compound 0.000949 µM",85.7%
same,"viability, T/C","second compound 1 µM, first compound 0.003 µM",82.8%
same,"viability, T/C","second compound 1 µM, first compound 0.00949 µM",79.8%
same,"viability, T/C","second compound 1 µM, first compound 0.03 µM",70.6%
same,"viability, T/C","second compound 1 µM, first compound 0.0949 µM",54.9%
same,"viability, T/C","second compound 1 µM, first compound 0.3 µM",33.4%
